test system: voltage-gated sodium channel (site 1, [3H]Saxitoxin binding); set-up: species or system rat
For % inhibition in this document: test concentration or dose not given here.

| Structure (SMILES) | % inhibition | IC50 [µM] |
| --- | --- | --- |
| CCn1c(=N)n(CC(O)c2cccs2)c2ccccc21.Cl (centres unmarked) [Compound 17] | 11% | – |
| Cl.N=c1n(Cc2ccc(Cl)cc2)c2ccccc2n1CC(O)c1ccco1 (racemic) [Compound 68] | — (key: —: A dash (-) indicates less than 10% inhibition was observed in this test) | – |
| Cl.N=c1n(CCN2CCOCC2)c2ccccc2n1CC(O)c1cccs1 (centres unmarked) [Compound 16] | 17% | – |
| Cl.Cn1c(=N)n(CC(O)C23CC4CC(CC(C4)C2)C3)c2ccccc21 (centres unmarked) [Compound 23] | 15% | – |
| Cl.Cn1c(=N)n(CC(O)c2ccc(Cl)c(Cl)c2)c2ccccc21 (centres unmarked) [Compound 13] | 46% | 232 |
| Br.N=c1n(Cc2cccc3ccccc23)c2ccccc2n1CC(O)COc1ccccc1 (racemic) [Compound 73] | — (key: —: A dash (-) indicates less than 10% inhibition was observed in this test) | 107 |
| C=CCn1c(=N)n(CC(O)C(C)(C)C)c2ccccc21.Cl (racemic) [Compound 36] | 22% | – |
| Br.N=c1n(CCN(Cc2ccccc2)Cc2ccccc2)c2ccccc2n1CC(O)COc1ccccc1 (racemic) [Compound 76] | — (key: —: A dash (-) indicates less than 10% inhibition was observed in this test) | 100 |
| Br.CCCCCCCCn1c(=N)n(CC(O)COc2ccccc2)c2ccccc21 (centres unmarked) [Compound 72] | 20% | 66 |
| Cl.Cn1c(=N)n(CC(O)COc2ccccc2)c2ccccc21 (racemic) [Compound 44] | 27% | – |
| CC(O)Cn1c(=N)n(C)c2ccccc21.Cl (centres unmarked) [Compound 66] | — (key: —: A dash (-) indicates less than 10% inhibition was observed in this test) | – |
| Cl.Cn1c(=N)n(CC(O)c2ccccc2)c2ccccc21 (centres unmarked) [Compound 65] | — (key: —: A dash (-) indicates less than 10% inhibition was observed in this test) | – |
| COc1ccc(C(O)Cn2c(=N)n(CCN3CCCCC3)c3ccccc32)cc1.Cl (centres unmarked) [Compound 45] | 28% | – |
| C=CCn1c(=N)n(CC(O)c2ccc(C)cc2)c2ccccc21.Cl (racemic) [Compound 50] | 33% | – |
| C=CCn1c(=N)n(CC(O)c2ccc(Br)cc2)c2ccccc21.Cl (racemic) [Compound 39] | 24% | – |
| CCN(CC)CCn1c(=N)n(CC(O)c2ccc(C)cc2)c2ccccc21.Cl (centres unmarked) [Compound 28] | 17% | – |
| Cl.N=c1n(CCN2CCCCC2)c2ccccc2n1CC(O)COc1ccc(Cl)cc1 (racemic) [Compound 40] | 24% | – |
| CC(C)(C)C(O)Cn1c(=N)n(CCN2CCCCC2)c2ccccc21.Cl (racemic) [Compound 69] | 18% | – |
| Cl.N=c1n(CCN2CCCCC2)c2ccccc2n1CC(O)c1cccs1 (centres unmarked) [Compound 38] | 22% | – |
| Cl.N=c1n(CCN2CCOCC2)c2ccccc2n1CC(O)COc1ccc(Cl)cc1 (racemic) [Compound 35] | 20% | – |
| COc1ccc(C(O)Cn2c(=N)n(Cc3ccccc3)c3ccccc32)cc1.Cl (racemic) [Compound 47] | 32% | – |
| Cl.Cn1c(=N)n(CC(O)COc2ccc(Cl)cc2)c2ccccc21 (racemic) [Compound 57] | — (key: —: A dash (-) indicates less than 10% inhibition was observed in this test) | – |
| CCCCn1c(=N)n(CC(O)c2ccc(Cl)cc2)c2ccccc21.Cl (centres unmarked) [Compound 53] | — (key: —: A dash (-) indicates less than 10% inhibition was observed in this test) | – |
| CC(C)(C)C(O)Cn1c(=N)n(Cc2ccccc2)c2ccccc21.Cl (centres unmarked) [Compound 26] | 17% | – |
| CCOc1ccc(C(O)Cn2c(=N)n(CCN3CCCCC3)c3ccccc32)cc1.Cl (racemic) [Compound 37] | 22% | – |

| Structure (SMILES) | % inhibition | IC50 [µM] |
| --- | --- | --- |
| CCCn1c(=N)n(CC(O)COc2ccc(Cl)cc2)c2ccccc21.Cl (centres unmarked) [Compound 29] | 18% | – |
| CCn1c(=N)n(CC(O)COc2ccc(Cl)cc2)c2ccccc21.Cl (racemic) [Compound 21] | 13% | – |
| C=CCn1c(=N)n(CC(O)c2ccc(OCC)cc2)c2ccccc21.Cl (centres unmarked) [Compound 49] | 32% | – |
| Cc1ccc(Cn2c(=N)n(CC(O)COc3ccc(Cl)cc3)c3ccccc32)cc1.Cl (centres unmarked) [Compound 52] | 37% | – |
| C=CCn1c(=N)n(CC(O)COc2ccc(Cl)cc2)c2ccccc21.Cl (racemic) [Compound 46] | 29% | – |
| C=CCn1c(=N)n(CC(O)c2ccc(Cl)cc2)c2ccccc21.Cl (racemic) [Compound 64] | — (key: —: A dash (-) indicates less than 10% inhibition was observed in this test) | – |
| Cl.N=c1n(Cc2ccccc2)c2ccccc2n1CC(O)c1ccco1 (centres unmarked) [Compound 67] | — (key: —: A dash (-) indicates less than 10% inhibition was observed in this test) | – |
| Cl.N=c1n(CCN2CCCCC2)c2ccccc2n1CC(O)c1cccc2ccccc12 (centres unmarked) [Compound 32] | 20% | – |
| CCCCn1c(=N)n(CC(O)c2ccccc2)c2ccccc21.Cl (centres unmarked) [Compound 18] | 11% | – |
| Cl.N=c1n(Cc2ccc(Cl)cc2)c2ccccc2n1CC(O)COc1ccc(Cl)cc1 (centres unmarked) [Compound 15] | 11% | – |
| CC(C)(C)C(O)Cn1c(=N)n(Cc2ccc(Cl)cc2)c2ccccc21.Cl (racemic) [Compound 59] | — (key: —: A dash (-) indicates less than 10% inhibition was observed in this test) | – |
| CCCn1c(=N)n(CC(O)c2ccccc2)c2ccccc21.Cl (centres unmarked) [Compound 43] | 26% | – |
| CN(C)CCn1c(=N)n(CC(O)c2ccc(Cl)c(Cl)c2)c2ccccc21.Cl (racemic) [Compound 51] | 36% | – |
| CCCn1c(=N)n(CC(O)COc2ccccc2)c2ccccc21.Cl (centres unmarked) [Compound 20] | 12% | – |
| CCCCn1c(=N)n(CC(O)c2ccc(Br)cc2)c2ccccc21.Cl (racemic) [Compound 62] | — (key: —: A dash (-) indicates less than 10% inhibition was observed in this test) | – |
| COc1ccc(C(O)Cn2c(=N)n(C)c3ccccc32)cc1.Cl (racemic) [Compound 27] | 17% | – |
| Cl.N=c1n(Cc2ccc(Cl)cc2)c2ccccc2n1CC(O)COc1ccccc1 (centres unmarked) [Compound 14] | 16% | – |
| CC(O)Cn1c(=N)n(Cc2ccccc2)c2ccccc21.Cl (centres unmarked) [Compound 24] | 16% | – |
| CC(C)(C)c1ccc(Cn2c(=N)n(CC(O)COc3ccccc3)c3ccccc32)cc1.Cl (centres unmarked) [Compound 12] | 59% | 34 |
| Br.CCCCCCCCCCCn1c(=N)n(CC(O)COc2ccccc2)c2ccccc21 (racemic) [Compound 74] | 33% | 117 |
| CCn1c(=N)n(CC(O)COc2ccccc2)c2ccccc21.Cl (centres unmarked) [Compound 19] | 11% | – |
| CCN(CC)CCn1c(=N)n(CC(O)c2ccc(OC)c(OC)c2)c2ccccc21.Cl (racemic) [Compound 31] | 19% | – |
| Cl.Cn1c(=N)n(CC(O)c2cccc3ccccc23)c2ccccc21 (centres unmarked) [Compound 58] | — (key: —: A dash (-) indicates less than 10% inhibition was observed in this test) | – |
| CCN(CC)CCn1c(=N)n(CC(O)COc2ccccc2)c2ccccc21.Cl (racemic) [Compound 55] | — (key: —: A dash (-) indicates less than 10% inhibition was observed in this test) | – |
| Cl.N=c1n(CCN2CCOCC2)c2ccccc2n1CC(O)c1ccco1 (racemic) [Compound 25] | 16% | – |
